Measured values taken from patent US12023397B2, “Scalp protection composition” (PATECH FINE CHEMICALS CO., LTD., priority 2021, dated 2024).

Columns and labels:
skin of a test subject = test: Moisture retention (skin moisture content after application); format: in vivo; conditions: 20° C.±3° C., relative humidity 30%±5%
Description: 0.1 g of the scalp protection composition of Example 1 was applied to the skin of a test subject. At the 1st, 2nd, and 3rd hours after start of application of the scalp protection composition of Example 1, the skin moisture content (%) of the test subject was measured by using a skin moisture tester (Manufacturer: Cortex Technology; Model no.: DermaLab® Combo) under a temperature of 20° C.±3° C. and a relative humidity of 30%±5%.
The test samples of Comparative Examples 1 and 3 were subjected to the same measurement as described above.
The higher the skin moisture content, the better the moisture retention is.

[1] = Spreadability (spreading rate on quantitative filter paper); format: physicochemical; conditions: 50 μL on quantitative filter paper NO. 5C, spreading area after 5 minutes divided by time
Description: 50 μL of the carboxylate compound of formula (I-1) prepared in Synthesis Example 1 was dropped on the center of a quantitative filter paper (NO. 5C), and after 5 minutes, the spreading area of the carboxylate compound of formula (I-1) on the quantitative filter paper was measured. The spreading rate (mm^2/min) was calculated by dividing the spreading area by the spreading time (i.e., 5 minutes).
The carboxylate compound of formula (I-2) prepared in Synthesis Example 2, the carboxylate compound of formula (I-3) prepared in Synthesis Example 3, and the test samples of Comparative Examples 1 to 3 were subjected to the same measurement as described above.
The higher the spreading rate, the better the spreadability is.

[2] = Hydrolysis resistance (variation in acid value in alkaline aqueous solution, pH 13); format: physicochemical; conditions: 10 g sample + 20 g NaOH aqueous solution pH 13, 40±1° C.
Description: 10 g of the carboxylate compound of formula (I-1) prepared in Synthesis Example 1 was mixed with 20 g of an alkaline aqueous solution with a pH value of 13 (which contained sodium hydroxide and water), and then subjected to a reaction at 40±1° C. for 4 hours. Next, the variation in acid value (mg KOH/g) was measured at the 0.75th, 2nd, 3rd, and 4th hours after starting the reaction.
The carboxylate compound of formula (I-2) prepared in Synthesis Example 2, the carboxylate compound of formula (I-3) prepared in Synthesis Example 3, and the test samples of Comparative Examples 1 to 2 were subjected to the same reaction and measurement as described above.
The smaller the variation in acid value, the better the hydrolysis resistance to strong bases is.

Spreading rate [1] [mm^2/min] | Variation in acid value ([2]; 0.75th hour) [mg KOH/g] | Variation in acid value ([2]; 2nd hour) [mg KOH/g] | Variation in acid value ([2]; 3rd hour) [mg KOH/g] | Variation in acid value ([2]; 4th hour) [mg KOH/g] | Structure (SMILES) | Skin moisture content (skin of a test subject; 1st hour after application of 0.1 g to skin) [%] | Skin moisture content (skin of a test subject; 2nd hour after application of 0.1 g to skin) [%] | Skin moisture content (skin of a test subject; 3rd hour after application of 0.1 g to skin) [%]
150 | 0.21 | 0.26 | 0.28 | 0.32 | CCCCCCCCCCC(CCCCCCCC)COC(=O)CCCCCCCCCCCCCCC(C)C (stereo not shown) [Comparative Example 1, 2-octyldodecyl isostearate] | 28.0 | 22.7 | 19.3
202 | <0.1 | <0.1 | 0.12 | 0.16 | CCCCCCCCCCC(CCCCCCCC)COC(=O)C(CC)CCCC (stereo not shown) [Synthesis Example 1, 2-octyldodecyl 2-ethylhexanoate] |  |  | 
